Test results from ChEMBL document CHEMBL5346893, “1,2,4-Amino-triazine derivatives as pyruvate dehydrogenase kinase inhibitors: Synthesis and pharmacological evaluation” (Eur J Med Chem, 2023).
Active and inactive are the calls of the source. The rule behind the calls is not given here.

Columns and labels:
[1] = test system: PSN1; assay: Antiproliferative activity against human PSN1 cells expressing KRAS mutant cultured as 3D spheroids assessed as inhibition of cell growth measured after 72 hrs by MTT assay; format: functional, cell-based; details: PSN1, 72 h
[2] = test system: BXPC-3; assay: Antiproliferative activity against human BXPC-3 cells expressing wild type KRAS cultured as 2D spheroids assessed as inhibition of cell growth measured after 72 hrs by MTT assay; format: functional, cell-based; details: BXPC-3, 72 h
[3] = test system: BXPC-3; assay: Antiproliferative activity against human BXPC-3 cells expressing wild type KRAS cultured as 3D spheroids assessed as inhibition of cell growth measured after 72 hrs by MTT assay; format: functional, cell-based; details: BXPC-3, 72 h
[4] = target: [Pyruvate dehydrogenase (acetyl-transferring)] kinase isozyme 3, mitochondrial (Homo sapiens) (UniProt Q15120); assay: Inhibition of PDK3 (unknown origin) at 1.5 uM incubated for 30 mins followed by substrate addition measured after 60 mins in presence of ATP by ADP-Glo luminescent assay relative to control; details: time 90.0 min
[5] = test system: PSN1; assay: Antiproliferative activity against human PSN1 cells expressing KRAS mutant cultured as 2D spheroids assessed as inhibition of cell growth measured after 72 hrs by MTT assay; format: functional, cell-based; details: PSN1, 72 h
[6] = target: Heat shock protein HSP90 (Homo sapiens, UniProt P07900+P08238); assay: Inhibition of human recombinant HSP90 at 1.5 uM incubated for 30 mins by fluorescence polarization based analysis relative to control; format: protein assay
[7] = target: T1, [Pyruvate dehydrogenase (acetyl-transferring)] kinase isozyme 1, mitochondrial (Homo sapiens, UniProt Q15118); assay: Inhibition of PDK1 (unknown origin) at 1.5 uM incubated for 30 mins followed by substrate addition measured after 60 mins in presence of ATP by ADP-Glo luminescent assay relative to control; details: time 90.0 min, values are per cent of control
[8] = target: [Pyruvate dehydrogenase (acetyl-transferring)] kinase isozyme 2, mitochondrial (Homo sapiens) (UniProt Q15119); assay: Inhibition of PDK2 (unknown origin) at 1.5 uM incubated for 30 mins followed by substrate addition measured after 60 mins in presence of ATP by ADP-Glo luminescent assay relative to control; details: time 90.0 min
[9] = target: T1, [Pyruvate dehydrogenase (acetyl-transferring)] kinase isozyme 1, mitochondrial; assay: Inhibition of PDK1 (unknown origin) incubated for 30 mins followed by substrate addition measured after 60 mins in presence of ATP by ADP-Glo luminescent assay
[10] = test system: PSN1; assay: Induction of reactive oxygen species production in human PSN1 cells assessed as decrease in total cellular sulfhydryls level at IC50 incubated for 24 hrs by DTNB reagent based spectrophotometric analysis; format: functional, cell-based
[11] = test system: PSN1; assay: Inhibition of PDK in human PSN1 cells expressing KRAS mutant assessed as decrease in lactate production levels at IC50 incubated for 60 mins by colorimetric analysis; format: cell-based
[12] = target: [Pyruvate dehydrogenase (acetyl-transferring)] kinase isozyme 4, mitochondrial (Homo sapiens) (UniProt Q16654); assay: Inhibition of PDK4 (unknown origin) at 1.5 uM incubated for 30 mins followed by substrate addition measured after 60 mins in presence of ATP by ADP-Glo luminescent assay relative to control; details: time 90.0 min
[13] = test system: PSN1; assay: Inhibition of PDK in human PSN1 cells expressing KRAS mutant assessed as increase in cellular oxygen consumption at IC50 incubated for 60 mins by fluorescence based analysis; format: cell-based
[14] = test system: PSN1; assay: Induction of mitochondrial membrane potential loss in human PSN1 cells at IC50 incubated for 60 mins by fluorescence based analysis; format: functional
[15] = test system: PSN1; assay: Downregulation of PDHA1 phosphorylation in human PSN1 cells at IC50 incubated for 24 hrs by ELISA assay; format: functional, cell-based
[16] = test system: PSN1; assay: Induction of reactive oxygen species production in human PSN1 cells assessed as increase in cellular hydrogen peroxide formation at 5 uM by CM-H2DCFDA staining based analysis; format: functional, cell-based

Sequence of [Pyruvate dehydrogenase (acetyl-transferring)] kinase isozyme 3, mitochondrial (Homo sapiens) (Q15120 whole entry, looked up): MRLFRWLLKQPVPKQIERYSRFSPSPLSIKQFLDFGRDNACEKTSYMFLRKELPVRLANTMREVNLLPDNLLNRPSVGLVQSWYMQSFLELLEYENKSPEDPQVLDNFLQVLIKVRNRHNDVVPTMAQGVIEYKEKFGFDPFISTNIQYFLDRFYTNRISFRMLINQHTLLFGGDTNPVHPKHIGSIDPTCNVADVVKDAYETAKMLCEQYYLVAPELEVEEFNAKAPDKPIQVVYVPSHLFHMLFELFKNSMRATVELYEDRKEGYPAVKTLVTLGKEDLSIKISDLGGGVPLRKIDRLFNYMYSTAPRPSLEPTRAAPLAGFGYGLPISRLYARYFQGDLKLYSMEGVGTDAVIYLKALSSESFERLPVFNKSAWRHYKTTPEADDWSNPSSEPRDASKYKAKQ
T1 sequence (Q15118 whole entry): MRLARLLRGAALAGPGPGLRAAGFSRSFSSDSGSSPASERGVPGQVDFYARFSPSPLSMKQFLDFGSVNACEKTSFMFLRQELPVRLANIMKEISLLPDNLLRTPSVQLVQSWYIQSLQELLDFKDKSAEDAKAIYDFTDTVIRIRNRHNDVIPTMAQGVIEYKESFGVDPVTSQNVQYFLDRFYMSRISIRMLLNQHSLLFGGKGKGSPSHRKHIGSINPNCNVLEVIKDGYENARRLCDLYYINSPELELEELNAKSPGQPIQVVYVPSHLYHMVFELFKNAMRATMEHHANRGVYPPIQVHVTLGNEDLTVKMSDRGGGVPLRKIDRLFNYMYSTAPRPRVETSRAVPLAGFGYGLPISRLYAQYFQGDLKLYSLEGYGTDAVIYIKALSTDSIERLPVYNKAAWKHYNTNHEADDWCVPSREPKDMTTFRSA
Sequence of [Pyruvate dehydrogenase (acetyl-transferring)] kinase isozyme 4, mitochondrial (Homo sapiens) (Q16654 whole entry, looked up): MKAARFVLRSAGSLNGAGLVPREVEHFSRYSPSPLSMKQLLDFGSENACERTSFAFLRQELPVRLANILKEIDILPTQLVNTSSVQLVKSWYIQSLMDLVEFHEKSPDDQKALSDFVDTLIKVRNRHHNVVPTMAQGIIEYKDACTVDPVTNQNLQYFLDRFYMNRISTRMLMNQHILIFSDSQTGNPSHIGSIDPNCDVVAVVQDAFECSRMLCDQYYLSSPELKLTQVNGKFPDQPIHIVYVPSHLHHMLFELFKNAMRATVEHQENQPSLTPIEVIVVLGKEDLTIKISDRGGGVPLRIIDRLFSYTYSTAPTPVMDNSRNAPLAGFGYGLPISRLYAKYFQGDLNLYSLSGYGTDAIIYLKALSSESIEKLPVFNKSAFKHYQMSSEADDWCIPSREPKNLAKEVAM

SMILES	IC50 [1] [µM]	IC50 [2] [µM]	IC50 [3] [µM]	inhibition [4] [%]	IC50 [5] [µM]	inhibition [6] [%]	residual activity [7] [%]	inhibition [8] [%]	IC50 [9] [µM]	Activity [10]	inhibition [11]	inhibition [12] [%]	inhibition [13]	Activity [14]	Activity [15]	Activity [16]
COc1ccc2[nH]cc(-c3nc(N)nnc3-c3cn(C)c4ncc(Br)cc34)c2c1	8.4	0.3	6.3	100	2.6	0	40	100								
Cn1cc(-c2nnc(N)nc2-c2c[nH]c3ccc(Br)cc23)c2cccnc21	20.9	2.3	25.9	100	2.9		40	100								
Nc1nnc(-c2c[nH]c3ncccc23)c(-c2c[nH]c3ccc(Br)cc23)n1	15.1	1.8	16.4		1.6		40	100								
COc1ccc2[nH]cc(-c3nc(N)nnc3-c3cn(C)c4ncccc34)c2c1	13.6	1.4	13.6		2.3		40	100								
O=C(O)C(Cl)Cl [DICHLOROACETIC ACID]	> 1000	> 1000	> 1000		> 1000											
Nc1nnc(-c2c[nH]c3ccc(Br)cc23)c(-c2c[nH]c3ncc(Br)cc23)n1	21.6	1.4	54.5		1.5		40	100								
Nc1nnc(-c2c[nH]c3ncc(Br)cc23)c(-c2c[nH]c3ccc(F)cc23)n1	28.3	2.5	19.7	100	2.9		40	100								
Cn1cc(-c2nc(N)nnc2-c2c[nH]c3ccccc23)c2cc(Br)cnc21	31.2	2.7	33.6		4.7		40	100								
Cn1cc(-c2nc(N)nnc2-c2c[nH]c3ccc(F)cc23)c2cc(Br)cnc21	8.3	0.2	5		2.3	60	60		0.15	Active	Active	60	Active	Active	Active	Active
Cn1cc(-c2nnc(N)nc2-c2c[nH]c3ccccc23)c2cc(Br)cnc21	31.8	3.2	34.2		4.6		40	100								
Nc1nnc(-c2c[nH]c3ccc(F)cc23)c(-c2c[nH]c3ncc(Br)cc23)n1	19.2	1.7	14.9	100	1.3		40	100								
COc1ccc2[nH]cc(-c3nc(N)nnc3-c3c[nH]c4ncccc34)c2c1	35.2	2.1	34.2	100	2.2		40	100								
COc1ccc2[nH]cc(-c3nc(N)nnc3-c3c[nH]c4ncc(Br)cc34)c2c1	17.2	4.4	31.2	100	4.7		40	100								
Cn1cc(-c2nnc(N)nc2-c2c[nH]c3ccccc23)c2cccnc21	20.1	1.8	16.1		2.2		40	100								
Cn1cc(-c2nc(N)nnc2-c2c[nH]c3ccc(Br)cc23)c2cccnc21	24.1	2.5	19.9	100	3.6		40	100								
Cn1cc(-c2nc(N)nnc2-c2c[nH]c3ccc(F)cc23)c2cccnc21	20.3	2.2	22.2	100	3.2		40	100								
CCCCCC[C@H]1C(=O)O[C@H](C)[C@H](NC(=O)c2cccc(NC=O)c2O)C(=O)O[C@@H](C)[C@@H]1OC(=O)CC(C)C																Active
COc1ccc2[nH]cc(-c3nnc(N)nc3-c3cn(C)c4ncccc34)c2c1	12.2	1.5	10.7		2.1		40	100								
Nc1nnc(-c2c[nH]c3ccc(Br)cc23)c(-c2c[nH]c3ncccc23)n1							40	100								
COc1ccc2[nH]cc(-c3nnc(N)nc3-c3c[nH]c4ncc(Br)cc34)c2c1	22.1	3.2	27.5		3.4		40	100								
Cn1cc(-c2nnc(N)nc2-c2c[nH]c3ccc(F)cc23)c2cccnc21	16	1.6	14.6	100	1.6		40	100								
Nc1nnc(-c2c[nH]c3ccc(F)cc23)c(-c2c[nH]c3ncccc23)n1	22.3	1.2	22.6		1.6		40	100								
Cn1cc(-c2nc(N)nnc2-c2c[nH]c3ccc(Br)cc23)c2cc(Br)cnc21	24.2	0.7	6		1.1	40	0	100	0.06	Active	Active	0	Active	Active	Active	Active
Nc1nnc(-c2c[nH]c3ncc(Br)cc23)c(-c2c[nH]c3ccc(Br)cc23)n1	23.5	2.1	28.7	100	4.6		40	100								
O=C(c1ccccc1)C(Cl)Cl	87.4	10.2	78.2		36.5				> 100		Active		Active		Active	
Cn1cc(-c2nc(N)nnc2-c2c[nH]c3ccccc23)c2cccnc21	13.2	1.9	15.5		2.1		40	100								
Nc1nnc(-c2c[nH]c3ccccc23)c(-c2c[nH]c3ncccc23)n1	14.3	1.5	23.2	100	1.8		40	100								
COc1ccc2[nH]cc(-c3nnc(N)nc3-c3c[nH]c4ncccc34)c2c1							40	100								
Nc1nnc(-c2c[nH]c3ncccc23)c(-c2c[nH]c3ccc(F)cc23)n1	20.1	2.6	19.7		3.2		40	100								
